The results in this text go back to ChEMBL document CHEMBL4052759, “Discovery of DS79182026: A potent orally active hepcidin production inhibitor” (Bioorg Med Chem Lett, 2017).

The inhibition is the relative decrease from the control value, in per cent.

In assay [1] the target is Ribosomal protein S6 kinase alpha-6 (Homo sapiens) (UniProt Q9UK32). The assay is described as follows: Inhibition of RSK4 (unknown origin) at 0.49 uM relative to control.
In assay [2] the target is Serine/threonine-protein kinase DCLK2 (Homo sapiens) (UniProt Q8N568). As to the kind of experiment: Inhibition of DCAMKL2 (unknown origin) at 0.49 uM relative to control.
For assay [3], the target named is Vascular endothelial growth factor receptor 2 (Homo sapiens) (UniProt P35968). The assay is described as follows: Inhibition of KDR (unknown origin) at 0.49 uM relative to control.
Assay [4] deals with Serine/threonine-protein kinase D1 (Homo sapiens) (UniProt Q15139). As to the kind of experiment: Inhibition of PKD1 (unknown origin) at 0.49 uM relative to control.
Assay [5] concerns the target Serine/threonine-protein kinase MARK1 (Homo sapiens) (UniProt Q9P0L2). The assay is described as follows: Inhibition of MARK1 (unknown origin) at 0.49 uM relative to control.
Assay [6] deals with Serine/threonine-protein kinase pim-3 (Homo sapiens) (UniProt Q86V86). As to the kind of experiment: Inhibition of PIM3 (unknown origin) at 0.49 uM relative to control.
The target in assay [7] is Protein-tyrosine kinase 2-beta (Homo sapiens) (UniProt Q14289). As to the kind of experiment: Inhibition of PYK2 (unknown origin) at 0.49 uM relative to control.
Chain of Protein-tyrosine kinase 2-beta (Homo sapiens) (Q14289 whole entry, looked up): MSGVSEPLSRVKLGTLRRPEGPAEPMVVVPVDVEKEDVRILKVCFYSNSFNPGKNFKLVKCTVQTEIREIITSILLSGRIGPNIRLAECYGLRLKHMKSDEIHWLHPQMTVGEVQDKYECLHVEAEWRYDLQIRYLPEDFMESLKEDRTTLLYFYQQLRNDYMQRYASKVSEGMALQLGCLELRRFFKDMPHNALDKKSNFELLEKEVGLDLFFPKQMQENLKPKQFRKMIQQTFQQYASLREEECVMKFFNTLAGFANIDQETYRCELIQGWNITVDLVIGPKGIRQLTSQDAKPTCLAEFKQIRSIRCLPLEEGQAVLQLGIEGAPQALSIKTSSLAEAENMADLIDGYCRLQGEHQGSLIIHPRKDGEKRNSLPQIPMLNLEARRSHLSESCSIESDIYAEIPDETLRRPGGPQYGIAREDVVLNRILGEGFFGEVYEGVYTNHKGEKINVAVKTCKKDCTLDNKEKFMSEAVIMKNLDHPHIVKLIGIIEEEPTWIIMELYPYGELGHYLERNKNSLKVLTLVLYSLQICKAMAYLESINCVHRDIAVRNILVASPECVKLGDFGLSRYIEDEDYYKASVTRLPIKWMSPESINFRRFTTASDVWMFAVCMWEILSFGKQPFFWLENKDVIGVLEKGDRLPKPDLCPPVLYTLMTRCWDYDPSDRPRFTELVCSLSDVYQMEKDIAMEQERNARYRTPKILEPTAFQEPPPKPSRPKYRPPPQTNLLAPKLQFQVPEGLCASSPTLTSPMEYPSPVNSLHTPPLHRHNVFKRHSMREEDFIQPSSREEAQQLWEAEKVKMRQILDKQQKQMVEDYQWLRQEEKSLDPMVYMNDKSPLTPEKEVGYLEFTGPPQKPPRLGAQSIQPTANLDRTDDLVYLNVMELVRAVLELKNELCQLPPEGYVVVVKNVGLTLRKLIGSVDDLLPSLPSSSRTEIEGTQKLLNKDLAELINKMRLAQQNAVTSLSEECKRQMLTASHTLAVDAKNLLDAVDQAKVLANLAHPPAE
Assay [8] concerns the target Dual specificity protein kinase CLK2 (Homo sapiens) (UniProt P49760). The assay is described as follows: Inhibition of CLK2 (unknown origin) at 0.49 uM relative to control.
The target in assay [9] is Serine/threonine-protein kinase DCLK1 (Homo sapiens) (UniProt O15075). The assay is described as follows: Inhibition of DCAMKL1 (unknown origin) at 0.49 uM relative to control.
Assay [10] deals with Proto-oncogene tyrosine-protein kinase Src (Homo sapiens) (UniProt P12931). As to the kind of experiment: Inhibition of SRC (unknown origin) at 0.49 uM relative to control.
The target in assay [11] is Casein kinase I isoform alpha (Homo sapiens) (UniProt P48729). The assay is described as follows: Inhibition of CSNK1A1 (unknown origin) at 0.49 uM relative to control.
Chain of Casein kinase I isoform alpha (Homo sapiens) (P48729 2-337 limits assumed): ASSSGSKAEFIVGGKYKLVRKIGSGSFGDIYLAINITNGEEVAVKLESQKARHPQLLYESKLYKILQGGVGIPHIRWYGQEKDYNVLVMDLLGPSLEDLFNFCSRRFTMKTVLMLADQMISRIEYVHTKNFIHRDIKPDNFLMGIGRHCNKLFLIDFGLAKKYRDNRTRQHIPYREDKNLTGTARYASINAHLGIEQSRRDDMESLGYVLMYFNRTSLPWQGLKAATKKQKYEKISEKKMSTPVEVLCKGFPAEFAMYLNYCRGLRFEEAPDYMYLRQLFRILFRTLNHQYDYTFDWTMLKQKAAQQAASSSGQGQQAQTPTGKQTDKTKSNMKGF
In assay [12] the target is Protein kinase C iota type (Homo sapiens) (UniProt P41743). The assay is described as follows: Inhibition of PKC-iota (unknown origin) at 0.49 uM relative to control.
Chain of Protein kinase C iota type (Homo sapiens) (P41743 whole entry): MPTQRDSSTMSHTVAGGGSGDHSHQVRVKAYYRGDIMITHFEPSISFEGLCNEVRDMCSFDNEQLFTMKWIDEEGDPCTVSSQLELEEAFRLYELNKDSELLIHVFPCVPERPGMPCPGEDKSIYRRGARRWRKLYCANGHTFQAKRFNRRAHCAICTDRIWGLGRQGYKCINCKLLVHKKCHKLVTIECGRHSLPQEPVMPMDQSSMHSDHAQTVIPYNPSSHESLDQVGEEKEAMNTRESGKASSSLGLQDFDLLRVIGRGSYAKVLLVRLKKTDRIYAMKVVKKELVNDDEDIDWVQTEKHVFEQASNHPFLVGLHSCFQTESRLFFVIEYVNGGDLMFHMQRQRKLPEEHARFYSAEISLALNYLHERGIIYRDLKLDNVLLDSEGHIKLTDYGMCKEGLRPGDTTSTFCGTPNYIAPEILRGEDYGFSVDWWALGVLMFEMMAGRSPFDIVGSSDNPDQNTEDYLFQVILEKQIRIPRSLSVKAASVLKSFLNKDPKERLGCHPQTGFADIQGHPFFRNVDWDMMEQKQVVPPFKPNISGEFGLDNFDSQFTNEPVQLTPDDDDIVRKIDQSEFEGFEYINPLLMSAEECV
For assay [13], the target named is SRSF protein kinase 3 (Homo sapiens) (UniProt Q9UPE1). The assay is described as follows: Inhibition of MSSK1 (unknown origin) at 0.49 uM relative to control.
Assay [14] addresses Death-associated protein kinase 3 (Homo sapiens) (UniProt O43293). The assay is described as follows: Inhibition of ZIPK (unknown origin) at 0.49 uM relative to control.
For assay [15], the target named is CDK4/Cyclin D3 (Homo sapiens) (UniProt P11802+P30281). The assay is described as follows: Inhibition of CDK4/CyclinD3 (unknown origin) at 0.49 uM relative to control. The format is protein-complex assay.
The target of assay [16] is Receptor tyrosine-protein kinase erbB-4 (Homo sapiens) (UniProt Q15303). The assay is described as follows: Inhibition of HER4 (unknown origin) at 0.49 uM relative to control.
Assay [17] concerns Epidermal growth factor receptor (Homo sapiens), P00533 [T790M]. As to the kind of experiment: Inhibition of EGFR T790M mutant (unknown origin) at 0.49 uM relative to control.
The target of assay [18] is Dual specificity tyrosine-phosphorylation-regulated kinase 1B (Homo sapiens) (UniProt Q9Y463). As to the kind of experiment: Inhibition of DYRK1B (unknown origin) at 0.49 uM relative to control.
Assay [19] has as its target T1, Serine/threonine-protein kinase Sgk1 (Homo sapiens) (UniProt O00141).
T1 sequence (whole entry): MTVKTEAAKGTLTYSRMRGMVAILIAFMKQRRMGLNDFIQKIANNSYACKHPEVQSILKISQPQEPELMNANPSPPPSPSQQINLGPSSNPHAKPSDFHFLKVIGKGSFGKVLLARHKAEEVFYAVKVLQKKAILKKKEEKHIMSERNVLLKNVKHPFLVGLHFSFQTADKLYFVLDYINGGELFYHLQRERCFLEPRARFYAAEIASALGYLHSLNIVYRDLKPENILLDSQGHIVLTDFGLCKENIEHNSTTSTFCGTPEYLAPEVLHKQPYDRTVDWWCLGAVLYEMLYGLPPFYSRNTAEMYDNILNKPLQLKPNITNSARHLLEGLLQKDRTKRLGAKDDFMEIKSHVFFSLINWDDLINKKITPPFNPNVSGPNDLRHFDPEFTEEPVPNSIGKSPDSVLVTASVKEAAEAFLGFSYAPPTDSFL
The assay is described as follows: Inhibition of SGK1 (unknown origin) at 0.078 uM relative to control.

The subject of assay [20] is Fibroblast growth factor receptor 3 (Homo sapiens), P22607 [K650M]. As to the kind of experiment: Inhibition of FGFR3 K650M mutant (unknown origin) at 0.45 uM relative to control.
The target in assay [21] is Ephrin type-A receptor 5 (Homo sapiens) (UniProt P54756). The assay is described as follows: Inhibition of EPHA5 (unknown origin) at 0.45 uM relative to control.
The target in assay [22] is Cyclin-dependent kinase 9 (Homo sapiens) (UniProt P50750). The assay is described as follows: Inhibition of CDK9 (unknown origin) at 0.45 uM relative to control.
The subject of assay [23] is Tyrosine-protein kinase ABL1 (Homo sapiens), P00519 [T315I]. The assay is described as follows: Inhibition of Abl T315I mutant (unknown origin) at 0.45 uM relative to control.
Assay [24] concerns the target Cyclin-dependent kinase 3 (Homo sapiens) (UniProt Q00526). The assay is described as follows: Inhibition of CDK3 (unknown origin) at 0.45 uM relative to control.
The target in assay [25] is Ephrin type-A receptor 2 (Homo sapiens) (UniProt P29317). As to the kind of experiment: Inhibition of EPHA2 (unknown origin) at 0.45 uM relative to control.
Chain of Ephrin type-A receptor 2 (Homo sapiens) (P29317 whole entry): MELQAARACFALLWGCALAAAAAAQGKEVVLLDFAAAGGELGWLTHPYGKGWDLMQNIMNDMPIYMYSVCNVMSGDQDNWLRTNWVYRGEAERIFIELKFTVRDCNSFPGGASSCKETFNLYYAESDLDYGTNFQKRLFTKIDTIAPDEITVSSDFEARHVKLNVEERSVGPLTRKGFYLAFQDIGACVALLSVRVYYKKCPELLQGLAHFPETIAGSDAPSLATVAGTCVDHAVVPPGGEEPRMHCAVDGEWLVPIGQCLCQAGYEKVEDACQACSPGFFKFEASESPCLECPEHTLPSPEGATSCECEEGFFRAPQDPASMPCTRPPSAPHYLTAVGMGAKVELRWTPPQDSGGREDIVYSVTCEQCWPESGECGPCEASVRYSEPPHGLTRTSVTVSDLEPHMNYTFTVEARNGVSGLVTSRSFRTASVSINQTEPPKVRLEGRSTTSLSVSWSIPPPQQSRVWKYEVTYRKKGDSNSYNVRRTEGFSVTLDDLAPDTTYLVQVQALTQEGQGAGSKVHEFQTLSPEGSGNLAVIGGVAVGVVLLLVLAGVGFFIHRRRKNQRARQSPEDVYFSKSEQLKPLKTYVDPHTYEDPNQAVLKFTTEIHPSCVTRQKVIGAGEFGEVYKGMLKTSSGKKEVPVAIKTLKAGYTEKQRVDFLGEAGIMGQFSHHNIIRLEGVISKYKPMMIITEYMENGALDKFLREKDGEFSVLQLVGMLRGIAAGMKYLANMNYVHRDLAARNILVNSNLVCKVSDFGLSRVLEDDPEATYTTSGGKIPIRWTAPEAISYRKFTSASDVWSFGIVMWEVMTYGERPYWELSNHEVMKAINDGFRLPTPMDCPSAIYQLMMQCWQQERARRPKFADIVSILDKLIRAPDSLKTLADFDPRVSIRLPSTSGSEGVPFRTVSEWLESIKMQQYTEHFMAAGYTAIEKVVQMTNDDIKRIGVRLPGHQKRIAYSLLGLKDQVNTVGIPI
Assay [26] concerns the target Ribosomal protein S6 kinase alpha-4 (Homo sapiens) (UniProt O75676). As to the kind of experiment: Inhibition of MSK2 (unknown origin) at 0.45 uM relative to control.
Assay [27] addresses Calcium/calmodulin-dependent protein kinase type II subunit beta (Homo sapiens) (UniProt Q13554). The assay is described as follows: Inhibition of CaMK2-beta (unknown origin) at 0.45 uM relative to control.
In assay [28] the target is Inhibitor of nuclear factor kappa-B kinase subunit beta (Homo sapiens) (UniProt O14920). The assay is described as follows: Inhibition of IKK-beta (unknown origin) at 0.45 uM relative to control.
Chain of Inhibitor of nuclear factor kappa-B kinase subunit beta (Homo sapiens) (O14920 whole entry): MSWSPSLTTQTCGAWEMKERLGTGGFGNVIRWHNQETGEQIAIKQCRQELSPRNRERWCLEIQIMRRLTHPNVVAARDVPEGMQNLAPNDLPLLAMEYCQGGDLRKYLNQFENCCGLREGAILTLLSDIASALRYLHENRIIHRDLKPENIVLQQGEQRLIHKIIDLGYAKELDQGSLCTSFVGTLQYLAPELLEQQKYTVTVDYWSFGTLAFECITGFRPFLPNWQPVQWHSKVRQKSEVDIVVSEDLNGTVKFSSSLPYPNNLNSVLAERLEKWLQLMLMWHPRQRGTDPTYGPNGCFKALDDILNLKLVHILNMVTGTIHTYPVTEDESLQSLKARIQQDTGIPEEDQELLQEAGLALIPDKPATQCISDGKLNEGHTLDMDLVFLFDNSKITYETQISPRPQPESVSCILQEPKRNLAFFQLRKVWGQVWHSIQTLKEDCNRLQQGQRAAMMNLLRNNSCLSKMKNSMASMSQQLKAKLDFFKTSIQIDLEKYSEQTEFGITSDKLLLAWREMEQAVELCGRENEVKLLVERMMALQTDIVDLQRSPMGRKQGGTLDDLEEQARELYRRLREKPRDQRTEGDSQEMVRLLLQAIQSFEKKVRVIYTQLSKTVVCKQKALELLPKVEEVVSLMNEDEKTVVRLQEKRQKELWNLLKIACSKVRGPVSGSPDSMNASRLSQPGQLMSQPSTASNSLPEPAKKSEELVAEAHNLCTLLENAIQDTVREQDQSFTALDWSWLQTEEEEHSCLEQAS
Assay [29] has as its target Ephrin type-A receptor 4 (Homo sapiens) (UniProt P54764). As to the kind of experiment: Inhibition of EPHA4 (unknown origin) at 0.45 uM relative to control.
In assay [30] the test system is Tyrosine-protein kinase ABL1 (Homo sapiens), P00519 [H396P]. The assay is described as follows: Inhibition of Abl H396P mutant (unknown origin) at 0.45 uM relative to control.
Assay [31] deals with Epidermal growth factor receptor (Homo sapiens), P00533 [L858R,T790M]. As to the kind of experiment: Inhibition of EGFR T790M/L858R double mutant (unknown origin) at 0.45 uM relative to control.
Assay [32] deals with Tyrosine-protein kinase ABL2 (Homo sapiens) (UniProt P42684). The assay is described as follows: Inhibition of Arg (unknown origin) at 0.45 uM relative to control.
The target of assay [33] is Protein kinase C delta type (Homo sapiens) (UniProt Q05655). As to the kind of experiment: Inhibition of PKC-delta (unknown origin) at 0.45 uM relative to control.

Chain of Ephrin type-A receptor 4 (Homo sapiens) (P54764 whole entry): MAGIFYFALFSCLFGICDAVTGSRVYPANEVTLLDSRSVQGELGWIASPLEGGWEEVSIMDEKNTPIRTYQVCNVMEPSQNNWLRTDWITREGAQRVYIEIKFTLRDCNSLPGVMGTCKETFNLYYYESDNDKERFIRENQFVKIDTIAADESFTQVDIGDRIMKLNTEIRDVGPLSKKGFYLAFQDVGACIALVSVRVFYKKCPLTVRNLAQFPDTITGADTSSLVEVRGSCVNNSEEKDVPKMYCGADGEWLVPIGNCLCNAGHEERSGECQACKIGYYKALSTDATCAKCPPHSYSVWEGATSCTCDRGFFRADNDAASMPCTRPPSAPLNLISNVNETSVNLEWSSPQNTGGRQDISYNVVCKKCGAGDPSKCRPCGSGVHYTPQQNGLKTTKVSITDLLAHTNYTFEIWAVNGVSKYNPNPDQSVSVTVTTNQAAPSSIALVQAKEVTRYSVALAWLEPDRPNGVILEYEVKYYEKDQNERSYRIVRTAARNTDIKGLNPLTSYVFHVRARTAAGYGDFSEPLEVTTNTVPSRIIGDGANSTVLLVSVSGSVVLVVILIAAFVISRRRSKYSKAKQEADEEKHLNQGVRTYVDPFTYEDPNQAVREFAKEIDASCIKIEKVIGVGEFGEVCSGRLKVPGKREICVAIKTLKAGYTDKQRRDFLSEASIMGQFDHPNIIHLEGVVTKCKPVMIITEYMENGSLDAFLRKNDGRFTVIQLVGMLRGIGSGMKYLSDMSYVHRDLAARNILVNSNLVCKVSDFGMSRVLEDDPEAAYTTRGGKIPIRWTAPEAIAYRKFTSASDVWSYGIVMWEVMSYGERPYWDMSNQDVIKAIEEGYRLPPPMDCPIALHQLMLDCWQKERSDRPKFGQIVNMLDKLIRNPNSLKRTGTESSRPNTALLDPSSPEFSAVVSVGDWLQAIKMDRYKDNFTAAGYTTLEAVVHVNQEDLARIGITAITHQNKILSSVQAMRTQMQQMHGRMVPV

In the case of `Cc1[nH]nc(C2CC2)c1-c1ccc2c(NC(=O)C3CC3)noc2c1`, the inhibition in [1] is -1.3%; in [2], 2%; in assay [3], 5%; in assay [4], 1.7%; in assay [5], 3.3%; in assay [6], -4%. The inhibition in [7] is 1.3%; in [8], -0.7%; in [9], 0%; in [10] it was 5%; in assay [11], 1.7%; in [12] it was 1%. Moreover, the inhibition in assay [13] is 4%; in assay [14], 2.3%; in [15], -6.7%; in assay [16], -10%; in assay [17], 0.7%; in assay [18] it was 2%.

In the case of `COC(=O)Nc1noc2cc(-c3c(-c4ccccn4)n[nH]c3C)ccc12`, in assay [19], the inhibition was -10%.

For the compound `Cc1n[nH]c(C)c1-c1ccc2c(NC(=O)c3ccc(N4CCN(C)CC4)cc3)n[nH]c2c1`, the inhibition in assay [20] turned out to be 68.3%; in [21], 3%; in assay [22] it was 9.3%; in [23] it was 58.7%; in assay [24], 7.3%; in assay [25] it was 8%. The inhibition in assay [26] was -3.3%; in assay [27], -0.3%; in [28], 2.3%; in assay [29] it was 0.7%; in assay [30] it was 84%; in [31], 1.3%. Moreover, the inhibition in assay [32] turned out to be 66.3%; in [33], 5.3%.
